# Test results from paper PMC5601486, “Identification of 4-phenylquinolin-2(1H)-one as a specific allosteric inhibitor of Akt” (Scientific Reports, 2017).
# Legend:
# NIH/3T3 cells = assay: MTS cell proliferation/viability assay; assay type: cell-based; conditions: no longer proliferating, in comparison to LY or Torin 1
# Experimental: Neuro 2A cells or NIH/3T3 cells (ATCC) were seeded at various confluency in a 96-well plate in 100 µL DMEM containing 5% FBS or 10% FBS with 1% penicillin streptomucin, respectively, at 37 °C in a 5% CO2 and 95% humidity incubator for 18 hr. To each well 1 µL inhibitor with various concentrations or DMSO was added. The final concentrations of the tested inhibitors were 0, 5, 10, 20, 40 and 80 µM for G7 and LY, and 0, 5, 10, 20, 40 and 80 nM for Torin1, based on their respective IC50 values (~µM for G7 and LY and ~ nM for Torin 1). After 24 hr, 20 µL of CellTiter 96® AQueous One Solution Reagent (Promega) were added. The plate was placed in the incubator for 2 h and absorbance at 490 nm was measured with a Synergy HT Microplate Reader (Bio-Tek).
# NEK5 = assay: KINOMEscan; conditions: 50000 nM
# Experimental: KINOMEscan™ selectivity screen
# (§1) The assay was perfor med at DiscoveRx Corporation according the methods published previously5. Briefly, Kinase-tagged T7 phage strains were grown in parallel in an E. coli host derived from the BL21 strain. E. coli were grown to log-phase and infected with T7 phage from a frozen stock and incubated with shaking at 32°C until lysis (90-150 minutes). The kinases were produced in HEK-293 cells and subsequently tagged with DNA for qPCR detection. Streptavidin-coated magnetic beads were treated with biotinylated small molecule ligands to generate affinity resins for kinase
# (§2) inhibitor or DMSO control was performed in polypropylene 384-well plates for 1 hr at room temperature. After wash with PBS buffer containing 0.05% Tween 20, the beads were incubated in elution buffer (PBS containing 0.05 % Tween 20 and 0.5 μM non-biotinylated affinity ligand) for 30 minutes at room temperature. The kinase concentration in the eluates was measured by qPCR.
# PIK3CA(E545A) = assay: KINOMEscan; conditions: 50000 nM
# Experimental: KINOMEscan™ selectivity screen
# (§3) Briefly, Kinase-tagged T7 phage strains were grown in parallel in an E. coli host derived from the BL21 strain. E. coli were grown to log-phase and infected with T7 phage from a frozen stock and incubated with shaking at 32°C until lysis (90-150 minutes). The kinases were produced in HEK-293 cells and subsequently tagged with DNA for qPCR detection. Streptavidin-coated magnetic beads were treated with biotinylated small molecule ligands to generate affinity resins for kinase
# as §2
# PIK3CD = assay: KINOMEscan; conditions: 50000 nM
# Experimental: KINOMEscan™ selectivity screen
# as §1, §2
# HIPK4 = assay: KINOMEscan; conditions: 50000 nM
# Experimental: KINOMEscan™ selectivity screen
# as §1, §2
# ADCK4 = assay: KINOMEscan; conditions: 50000 nM
# Experimental: KINOMEscan™ selectivity screen
# as §1, §2
# RAF1 = assay: KINOMEscan; conditions: 50000 nM
# Experimental: KINOMEscan™ selectivity screen
# as §1, §2
# TYRO3 = assay: KINOMEscan; conditions: 50000 nM
# Experimental: KINOMEscan™ selectivity screen
# as §1, §2
# CDK11 = assay: KINOMEscan; conditions: 50000 nM
# Experimental: KINOMEscan™ selectivity screen
# as §1, §2
# EPHB1 = assay: KINOMEscan; conditions: 50000 nM
# Experimental: KINOMEscan™ selectivity screen
# as §3, §2
# PHKG2 = assay: KINOMEscan; conditions: 50000 nM
# Experimental: KINOMEscan™ selectivity screen
# as §3, §2
# AMPK-alpha1 = assay: KINOMEscan; conditions: 50000 nM
# Experimental: KINOMEscan™ selectivity screen
# as §1, §2
# STK35 = assay: KINOMEscan; conditions: 50000 nM
# Experimental: KINOMEscan™ selectivity screen
# as §3, §2
# [1] = test system: EGFR(L747-E749del, A750P); assay: KINOMEscan; conditions: 50000 nM
# Experimental: KINOMEscan™ selectivity screen
# as §1, §2
# PKN1 = assay: KINOMEscan; conditions: 50000 nM
# Experimental: KINOMEscan™ selectivity screen
# as §1, §2
# CDK3 = assay: KINOMEscan; conditions: 50000 nM
# Experimental: KINOMEscan™ selectivity screen
# as §3, §2
# JNK3 = assay: KINOMEscan; conditions: 50000 nM
# Experimental: KINOMEscan™ selectivity screen
# as §1, §2
# CDK8 = assay: KINOMEscan; conditions: 50000 nM
# Experimental: KINOMEscan™ selectivity screen
# as §1, §2
# NDR1 = assay: KINOMEscan; conditions: 50000 nM
# Experimental: KINOMEscan™ selectivity screen
# as §3, §2
# PLK3 = assay: KINOMEscan; conditions: 50000 nM
# Experimental: KINOMEscan™ selectivity screen
# as §3, §2
# VRK2 = assay: KINOMEscan; conditions: 50000 nM
# Experimental: KINOMEscan™ selectivity screen
# as §1, §2
# FLT1 = assay: KINOMEscan; conditions: 50000 nM
# Experimental: KINOMEscan™ selectivity screen
# as §1, §2
# PAK3 = assay: KINOMEscan; conditions: 50000 nM
# Experimental: KINOMEscan™ selectivity screen
# as §1, §2
# NEK7 = assay: KINOMEscan; conditions: 50000 nM
# Experimental: KINOMEscan™ selectivity screen
# as §1, §2
# EGFR(L747-T751del,Sins) = assay: KINOMEscan; conditions: 50000 nM
# Experimental: KINOMEscan™ selectivity screen
# as §3, §2
# KIT-autoinhibited = assay: KINOMEscan; conditions: 50000 nM
# Experimental: KINOMEscan™ selectivity screen
# as §1, §2
# DYRK1B = assay: KINOMEscan; conditions: 50000 nM
# Experimental: KINOMEscan™ selectivity screen
# (§4) The assay was perfor med at DiscoveRx Corporation according the methods published previously5. […] The kinases were produced in HEK-293 cells and subsequently tagged with DNA for qPCR detection. Streptavidin-coated magnetic beads were treated with biotinylated small molecule ligands to generate affinity resins for kinase
# as §2
# MARK1 = assay: KINOMEscan; conditions: 50000 nM
# Experimental: KINOMEscan™ selectivity screen
# as §4, §2
# PRKX = assay: KINOMEscan; conditions: 50000 nM
# Experimental: KINOMEscan™ selectivity screen
# as §1, §2
# PRKCH = assay: KINOMEscan; conditions: 50000 nM
# Experimental: KINOMEscan™ selectivity screen
# The kinases were produced in HEK-293 cells and subsequently tagged with DNA for qPCR detection. Streptavidin-coated magnetic beads were treated with biotinylated small molecule ligands to generate affinity resins for kinase
# as §2
# FLT4 = assay: KINOMEscan; conditions: 50000 nM
# Experimental: KINOMEscan™ selectivity screen
# as §1, §2
# MAP3K15 = assay: KINOMEscan; conditions: 50000 nM
# Experimental: KINOMEscan™ selectivity screen
# as §3, §2
# ERN1 = assay: KINOMEscan; conditions: 50000 nM
# Experimental: KINOMEscan™ selectivity screen
# as §3, §2
# MEK1 = assay: KINOMEscan; conditions: 50000 nM
# Experimental: KINOMEscan™ selectivity screen
# as §3, §2
# SGK2 = assay: KINOMEscan; conditions: 50000 nM
# Experimental: KINOMEscan™ selectivity screen
# as §3, §2
# MET(Y1235D) = assay: KINOMEscan; conditions: 50000 nM
# Experimental: KINOMEscan™ selectivity screen
# as §3, §2
# KIT(D816V) = assay: KINOMEscan; conditions: 50000 nM
# Experimental: KINOMEscan™ selectivity screen
# as §1, §2
# HASPIN = assay: KINOMEscan; conditions: 50000 nM
# Experimental: KINOMEscan™ selectivity screen
# as §1, §2
# PAK7 = assay: KINOMEscan; conditions: 50000 nM
# Experimental: KINOMEscan™ selectivity screen
# as §1, §2
# FGFR1 = assay: KINOMEscan; conditions: 50000 nM
# Experimental: KINOMEscan™ selectivity screen
# as §1, §2
# LRRK2 = assay: KINOMEscan; conditions: 50000 nM
# Experimental: KINOMEscan™ selectivity screen
# as §1, §2
# YSK4 = assay: KINOMEscan; conditions: 50000 nM
# Experimental: KINOMEscan™ selectivity screen
# as §1, §2
# IRAK1 = assay: KINOMEscan; conditions: 50000 nM
# Experimental: KINOMEscan™ selectivity screen
# as §1, §2
# MST4 = assay: KINOMEscan; conditions: 50000 nM
# Experimental: KINOMEscan™ selectivity screen
# as §4, §2
# FLT3(ITD) = assay: KINOMEscan; conditions: 50000 nM
# Experimental: KINOMEscan™ selectivity screen
# as §4, §2
# over 380 human kinases = assay: KINOMEscan selectivity screen (whole panel); conditions: 50000 nM; 403 non-mutant kinases
# Experimental: KINOMEscan™ selectivity screen
# as §1, §2
compound,measurement,setting,value
"Oc1cc(-c2ccccc2)c2ccccc2n1 [G7, 4-phenylquinolin-2(1H)-one]",inhibition of confluent NIH/3T3 cells,NIH/3T3 cells,considerably less inhibition
same,Percent Control,NEK5,100%
same,Percent Control,PIK3CA(E545A),100%
same,Percent Control,PIK3CD,100%
same,Percent Control,HIPK4,98%
same,Percent Control,ADCK4,96%
same,Percent Control,RAF1,95%
same,Percent Control,TYRO3,93%
same,Percent Control,CDK11,91%
same,Percent Control,EPHB1,91%
same,Percent Control,PHKG2,91%
same,Percent Control,AMPK-alpha1,90%
same,Percent Control,STK35,90%
same,Percent Control,[1],89%
same,Percent Control,PKN1,89%
same,Percent Control,CDK3,88%
same,Percent Control,JNK3,86%
same,Percent Control,CDK8,85%
same,Percent Control,NDR1,83%
same,Percent Control,PLK3,83%
same,Percent Control,VRK2,82%
same,Percent Control,FLT1,81%
same,Percent Control,PAK3,81%
same,Percent Control,NEK7,78%
same,Percent Control,"EGFR(L747-T751del,Sins)",77%
same,Percent Control,KIT-autoinhibited,77%
same,Percent Control,DYRK1B,76%
same,Percent Control,MARK1,76%
same,Percent Control,PRKX,76%
same,Percent Control,PRKCH,75%
same,Percent Control,FLT4,72%
same,Percent Control,MAP3K15,71%
same,Percent Control,ERN1,69%
same,Percent Control,MEK1,69%
same,Percent Control,SGK2,62%
same,Percent Control,MET(Y1235D),59%
same,Percent Control,KIT(D816V),58%
same,Percent Control,HASPIN,57%
same,Percent Control,PAK7,57%
same,Percent Control,FGFR1,56%
same,Percent Control,LRRK2,55%
same,Percent Control,YSK4,55%
same,Percent Control,IRAK1,53%
same,Percent Control,MST4,53%
same,Percent Control,FLT3(ITD),52%
same,Number of Hits S(1),over 380 human kinases,0
same,Number of Hits S(10),over 380 human kinases,2
same,Number of Hits S(35),over 380 human kinases,14
same,Selectivity Score S(10),over 380 human kinases,0.005
same,Selectivity Score S(35),over 380 human kinases,0.035
